# According to ChEMBL document CHEMBL2390817, “Structure-activity relationship of human glutaminyl cyclase inhibitors having an N-(5-methyl-1H-imidazol-1-yl)propyl thiourea template” (Bioorg Med Chem, 2013):
# Target: Glutaminyl-peptide cyclotransferase (Homo sapiens, UniProt Q16769)
# Test: Inhibition of human glutaminyl cyclase expressed in HEK293 cells using L-glutaminyl-beta-naphthylamine as substrate after 1 hr by fluorometric analysis; call rule not given here
# Chain of Glutaminyl-peptide cyclotransferase (Q16769 whole entry): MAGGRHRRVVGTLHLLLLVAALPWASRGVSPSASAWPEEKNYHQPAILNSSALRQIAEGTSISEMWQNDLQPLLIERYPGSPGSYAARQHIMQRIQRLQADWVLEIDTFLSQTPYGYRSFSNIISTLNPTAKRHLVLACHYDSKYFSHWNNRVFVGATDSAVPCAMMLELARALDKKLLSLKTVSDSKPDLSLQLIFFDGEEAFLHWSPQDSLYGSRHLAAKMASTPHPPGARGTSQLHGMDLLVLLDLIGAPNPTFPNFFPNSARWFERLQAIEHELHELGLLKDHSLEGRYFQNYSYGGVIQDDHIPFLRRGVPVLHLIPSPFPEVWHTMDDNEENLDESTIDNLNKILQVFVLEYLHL
row,SMILES,IC50
1,Cc1cncn1CCCNC(=S)Nc1ccc2cnccc2c1,Active
2,Cc1cncn1CCCNC(=S)Nc1cccc2cccnc12,Active
3,Cc1cncn1CCCNC(=S)Nc1cccnc1,Active
4,Cc1cncn1CCCNC(=S)Nc1cnc2ccccc2c1,Active
5,Cc1cncn1CCCNC(=S)Nc1cccc2c1OCCO2,Not Active
6,Cc1cncn1CCCNC(=S)Nc1ccc2cc[nH]c2c1,Active
7,Cc1cncn1CCCNC(=S)Nc1ccc2c(c1)CCC2,Active
